What was measured:
Assay type in all cases: cell-based
NCI-H1155 = assay: Lung cancer cell line panel screened for sensitivity to BPTES, 72 hr proliferation assay
From the text: (§1) Of these, 44 of the cell lines have been classified as non-small cell lung cancer (NSCLC). […] Four of the top 25 transcriptional/cellular pathways were related to the epithelial-mesenchymal transition (EMT) (ranks 1, 15, 23, 25 of FIG. 2). […] Low E-cadherin/high vimentin are well-defined markers of cells that have a mesenchymal phenotype as characterized for example, in any one of the following references: (Yauch et al., (2005) Cin Cancer Res 11:24; Savagner et al., (2010) Ann Oncol. 21(suppl 7): vii89; Thiery et al., (2002) Nature Reviews Cancer June vol 2:442).

NCI-H1395 = assay: as above
From the text: as §1

NCI-H23 = assay: as above
From the text: as §1

NCI-H292 = assay: as above
From the text: as §1

NCI-H446 = assay: as above
From the text: as §1

NCI-H520 = assay: as above
From the text: as §1

NCI-H522 = assay: as above
From the text: as §1

NCI-H838 = assay: as above
From the text: as §1

SW900 = assay: as above
From the text: as §1

A427 cells = assay: 72 hr proliferation assay in lines stably expressing empty vector, GAC or GAC-BR
Protocol: A427 parent cells or lines stably expressing pLVX empty vector control (Con), wild-type GAC (GAC), or a BPTES-resistant GAC enzyme (GAC-BR) were treated with indicated concentrations of drugs in a 72 hr proliferation assay. […] Calculated p-values from student t-test, * (3×10^−8), **(10^−9), ^#(10^−7), ^##(2×10^−6).
Levels of overexpression of the GAC WT and GAC-BR mutant were approximately 1.5-2.0 fold above endogenous GLS1 levels (FIG. 12).

NCI-H28 = assay: Mesothelioma cancer cell lines screened for sensitivity to BPTES; settings: NCI-H28, among mesothelioma cancer cell lines
From the text: The MET-5A cell line is a normal […] cell line.
Low E-cadherin/high vimentin are well-defined markers of cells that have a mesenchymal phenotype as characterized for example, in any one of the following references: (Yauch et al., (2005) Cin Cancer Res 11:24; Savagner et al., (2010) Ann Oncol. 21(suppl 7): vii89; Thiery et al., (2002) Nature Reviews Cancer June vol 2:442).

SMILES: O=C(Cc1ccccc1)Nc1nnc(CCSCCc2nnc(NC(=O)Cc3ccccc3)s2)s1 [BPTES]
- μ/μmax (NCI-H1155): 0.93
- Max Inh @ 10 uM (%) (NCI-H1395; NCI-H1395, 10 uM): 16%
- Mu/max @10 uM (NCI-H1395; NCI-H1395, 10 uM): 0.61
- μ/μmax @10 uM (NCI-H1395; NCI-H1395, 10 uM): 0.61
- μ/μmax (NCI-H1395; NCI-H1395 cell line): 0.61
- Max Inh @ 10 uM (%) (NCI-H23; NCI-H23, 10 uM): 45%
- Mu/max @10 uM (NCI-H23; NCI-H23, 10 uM): 0.60
- μ/μmax @10 uM (NCI-H23; NCI-H23, 10 uM): 0.60
- μ/μmax (NCI-H23; NCI-H23 cell line): 0.60
- μ/μmax (NCI-H292): 0.89
- μ/μmax (NCI-H446): 0.84
- Max Inh @ 10 uM (%) (NCI-H520; NCI-H520, 10 uM): 14%
- Mu/max @10 uM (NCI-H520; NCI-H520, 10 uM): 0.79
- μ/μmax @10 uM (NCI-H520; NCI-H520, 10 uM): 0.79
- μ/μmax (NCI-H520; NCI-H520 cell line): 0.79
- Max Inh @ 10 uM (%) (NCI-H522; NCI-H522, 10 uM): 39%
- Mu/max @10 uM (NCI-H522; NCI-H522, 10 uM): 0.61
- μ/μmax @10 uM (NCI-H522; NCI-H522, 10 uM): 0.61
- μ/μmax (NCI-H522; NCI-H522 cell line): 0.61
- sensitivity to BPTES (NCI-H838; NCI-H838): moderate level of sensitivity
- Max Inh @ 10 uM (%) (NCI-H838; NCI-H838, 10 uM): 37%
- Mu/max @10 uM (NCI-H838; NCI-H838, 10 uM): 0.66
- μ/μmax @10 uM (NCI-H838; NCI-H838, 10 uM): 0.66
- μ/μmax (NCI-H838; NCI-H838 cell line): 0.66
- μ/μmax (SW900): 0.70
- sensitivity to BPTES (A427 cells; A427 cells expressing empty vector or GAC-WT): retained significant sensitivity
- sensitivity to BPTES (A427 cells; A427 cells with stable overexpression of the GAC-BR mutant): rendered resistant
- sensitivity to BPTES (NCI-H28): most sensitive

Reference: patent US10101331B2, “Methods of evaluating patients using E-cadherin or vimentin” (AGIOS PHARMACEUTICALS, INC, priority 2012, dated 2018)
